# Measured values as given in patent US20200015481A1, “SYNERGISTIC WEED CONTROL FROM APPLICATIONS OF PYRIDINE CARBOXYLIC ACID HERBICIDES AND PHOTOSYSTEM II INHIBITORS” (Dow AgroSciences, LLC, priority 2014, published 2020).
# Tests used:
# [1] = tested on: poinsettia (Euphorbia heterophylla, EPHHL); test: Postemergence herbicidal activity, greenhouse (Example 3); format: in vivo
# Text: (§1) Compound 1 was formulated as an EC and combined with bentazon, isoproturon, metribuzin and atrazine.
# [2] = tested on: wild pansy (VIOTR, Viola tricolor); test: as above; format: in vivo
# Text: as §1
# [3] = tested on: ivy-leaved speedwell (VERHE, Veronica hederifolia); test: as above; format: in vivo
# Text: as §1
# [4] = tested on: pigweed (Amaranthus retroflexus, AMARE); test: as above; format: in vivo
# Text: as §1
# corn (ZEAMX) = test: Postemergence crop phytotoxicity, greenhouse (Example 3); format: in vivo, Zea mays; conditions: 20-22 d
# Text: as §1
# winter wheat (TRZAW) [5] = test: as above; format: in vivo, Triticum aestivum; conditions: 20-22 d
# Text: as §1
# [6] = tested on: velvetleaf (Abutilon theophrasti, ABUTH); test: Postemergence herbicidal activity, greenhouse (Example 3); format: in vivo
# Text: as §1
# [7] = tested on: nutsedge (Cyperus esculentus, CYPES); test: as above; format: in vivo
# Text: as §1
# [8] = tested on: barnyardgrass (Echinochloa crus-galli, ECHCG); test: as above; format: in vivo
# Text: as §1
# [9] = tested on: large crabgrass (Digitaria sanguinalis, DIGSA); test: as above; format: in vivo
# Text: as §1
# [10] = tested on: thistle (Cirsium arvense, CIRAR); test: as above; format: in vivo
# Text: as §1
# [11] = tested on: rape (Brassica napus, BRSNN); test: as above; format: in vivo
# Text: as §1
# winter wheat (TRZAW) [12] = test: Postemergence crop phytotoxicity, greenhouse (Example 1); conditions: 20-22 d
# [13] = tested on: thistle (CIRAR, Cirsium arvense); test: Postemergence herbicidal activity, greenhouse (Example 1); conditions: 20-22 d
# spring barley (HORVS) = test: Postemergence crop phytotoxicity, greenhouse (Example 1); conditions: Bromoxynil 70 g ai/ha, 20-22 d
# [14] = tested on: poinsettia (Euphorbia heterophylla, EPHHL); test: Postemergence herbicidal activity, greenhouse (Example 2); format: in vivo; conditions: 20-22 d
# Method: (§2) Stocks solutions of the compound mixtures were prepared following the same procedure.
# [15] = tested on: nutsedge (Cyperus esculentus, CYPES); test: as above; format: in vivo; conditions: 20-22 d
# Method: as §2
# [16] = tested on: pigweed (AMARE, Amaranthus retroflexus); test: as above; format: in vivo; conditions: 20-22 d
# Method: as §2
# [17] = tested on: ivyleaf morningglory (Ipomoea hederacea, IPOHE); test: as above; format: in vivo; conditions: 20-22 d
# Method: as §2
# [18] = tested on: pigweed (AMARE, Amaranthus retroflexus); test: Postemergence herbicidal activity, greenhouse (Example 1); conditions: 20-22 d
# winter wheat (TRZAW) [19] = test: Postemergence crop phytotoxicity, greenhouse (Example 2)
# Method: as §2
# maize (ZEAMX) = test: as above
# Method: as §2
# rice (ORYSA) = test: Postemergence crop phytotoxicity, greenhouse (Example 3); format: in vivo, Oryza sativa
# Text: as §1
# [20] = tested on: common sunflower (Helianthus annuus, HELAN); test: Postemergence herbicidal activity, greenhouse (Example 3); format: in vivo
# Text: as §1
# [21] = Compound 1 5 g ae/ha, 20-22 d (Tables 4-6)
# [22] = Compound 1 5 g ae/ha, 20-22 d (Table 7)
# [23] = Isoproturon 150 g ai/ha, 20-22 d
smiles,measurement,setting,value
CCNc1nc(Cl)nc(NC(C)C)n1 [Atrazine],Effect (% visual injury) Obs,"[1]; Atrazine 450 g ai/ha, 20-22 d",0%
same,Effect (% visual injury) Obs,"[2]; Atrazine 450 g ai/ha, 20-22 d",5%
same,Effect (% visual injury) Obs,"[3]; Atrazine 450 g ai/ha, 20-22 d",45%
same,Effect (% visual injury) Obs,"[4]; Atrazine 450 g ai/ha, 20-22 d",50%
CC(C)N1C(=O)c2ccccc2NS1(=O)=O [Bentazon],Effect (% visual injury) Obs,corn (ZEAMX); Bentazon 60 g ai/ha,0%
same,Effect (% visual injury) Obs,winter wheat (TRZAW) [5]; Bentazon 60 g ai/ha,0%
same,Effect (% visual injury) Obs,"[6]; Bentazon 60 g ai/ha, 20-22 d",0%
same,Effect (% visual injury) Obs,"[1]; Bentazon 60 g ai/ha, 20-22 d",0%
same,Effect (% visual injury) Obs,"[7]; Bentazon 60 g ai/ha, 20-22 d",0%
same,Effect (% visual injury) Obs,"[8]; Bentazon 60 g ai/ha, 20-22 d",0%
same,Effect (% visual injury) Obs,"[9]; Bentazon 60 g ai/ha, 20-22 d",0%
same,Effect (% visual injury) Obs,"[10]; Bentazon 60 g ai/ha, 20-22 d",0%
same,Effect (% visual injury) Obs,"[11]; Bentazon 60 g ai/ha, 20-22 d",20%
same,Effect (% visual injury) Obs,"[4]; Bentazon 60 g ai/ha, 20-22 d",10%
N#Cc1cc(Br)c(O)c(Br)c1 [Bromoxynil],Effect (% visual injury) Obs,winter wheat (TRZAW) [12]; Bromoxynil 70 g ai/ha,0%
same,Effect (% visual injury) Obs,winter wheat (TRZAW) [12]; Bromoxynil 140 g ai/ha,0%
same,Effect (% visual injury) Obs,[13]; Bromoxynil 70 g ai/ha,40%
same,Effect (% visual injury) Obs,spring barley (HORVS),0%
same,Effect (% visual injury) Obs,[14]; Bromoxynil 70 g ai/ha,5%
same,Effect (% visual injury) Obs,[15]; Bromoxynil 70 g ai/ha,0%
same,Effect (% visual injury) Obs,[16]; Bromoxynil 70 g ai/ha,20%
same,Effect (% visual injury) Obs,[17]; Bromoxynil 70 g ai/ha,25%
same,Effect (% visual injury) Obs,[18]; Bromoxynil 140 g ai/ha,0%
same,Effect (% visual injury) Obs,"winter wheat (TRZAW) [19]; TRZAW, Bromoxynil 70 g ai/ha, postemergence, 20-22 d",0%
same,Effect (% visual injury) Obs,"maize (ZEAMX); ZEAMX, Bromoxynil 70 g ai/ha, postemergence, 20-22 d",0%
Nc1c(F)c(-c2ccc3cc[nH]c3c2F)nc(C(=O)O)c1Cl [Compound 1],Effect (% visual injury) Obs,"rice (ORYSA); Oryza sativa (rice), in vivo",0%
same,Effect (% visual injury) Obs,[6]; [21],10%
same,Effect (% visual injury) Obs,[1]; [22],97%
same,Effect (% visual injury) Obs,[1]; [21],97%
same,Effect (% visual injury) Obs,[7]; [21],10%
same,Effect (% visual injury) Obs,[2]; [22],5%
same,Effect (% visual injury) Obs,[2]; [21],10%
same,Effect (% visual injury) Obs,[8]; [21],60%
same,Effect (% visual injury) Obs,[9]; [21],0%
same,Effect (% visual injury) Obs,[3]; [22],40%
same,Effect (% visual injury) Obs,[20]; [21],97%
same,Effect (% visual injury) Obs,[10]; [21],20%
same,Effect (% visual injury) Obs,[11]; [21],50%
same,Effect (% visual injury) Obs,[4]; [22],65%
same,Effect (% visual injury) Obs,[4]; [21],93%
Nc1c(F)c(-c2ccc3cc[nH]c3c2F)nc(C(=O)OCc2ccccc2)c1Cl [Compound 2],Effect (% visual injury) Obs,[14]; Compound 2 5 g ae/ha,35%
same,Effect (% visual injury) Obs,[14]; Compound 2 10 g ae/ha,75%
same,Effect (% visual injury) Obs,[15]; Compound 2 5 g ae/ha,5%
same,Effect (% visual injury) Obs,[15]; Compound 2 10 g ae/ha,10%
same,Effect (% visual injury) Obs,[16]; Compound 2 5 g ae/ha,88%
same,Effect (% visual injury) Obs,[16]; Compound 2 10 g ae/ha,100%
same,Effect (% visual injury) Obs,[17]; Compound 2 5 g ae/ha,10%
same,Effect (% visual injury) Obs,[17]; Compound 2 10 g ae/ha,20%
same,Effect (% visual injury) Obs,"winter wheat (TRZAW) [19]; Triticum aestivum (winter wheat), in vivo",3%
same,Effect (% visual injury) Obs,"maize (ZEAMX); Zea mays (maize), in vivo",3%
Nc1c(F)c(-c2ccc3cc[nH]c3c2F)nc(C(=O)[O-])c1Cl.[K+] [Compound 7],Effect (% visual injury) Obs,[13]; Compound 7 5 g ae/ha,50%
same,Effect (% visual injury) Obs,[13]; Compound 7 10 g ae/ha,65%
same,Effect (% visual injury) Obs,[18]; Compound 7 8.75 g ae/ha,70%
CC(C)c1ccc(NC(=O)N(C)C)cc1 [Isoproturon],Effect (% visual injury) Obs,[7]; [23],0%
same,Effect (% visual injury) Obs,[2]; [23],0%
same,Effect (% visual injury) Obs,[8]; [23],0%
same,Effect (% visual injury) Obs,[20]; [23],0%
same,Effect (% visual injury) Obs,[10]; [23],10%
same,Effect (% visual injury) Obs,[11]; [23],0%
CSc1nnc(C(C)(C)C)c(=O)n1N [Metribuzin],Effect (% visual injury) Obs,corn (ZEAMX); Metribuzin 25 g ai/ha,0%
same,Effect (% visual injury) Obs,"rice (ORYSA); ORYSA, Metribuzin 25 g ai/ha, postemergence, 20-22 d",0%
same,Effect (% visual injury) Obs,winter wheat (TRZAW) [5]; Metribuzin 25 g ai/ha,0%
same,Effect (% visual injury) Obs,"[1]; Metribuzin 25 g ai/ha, 20-22 d",0%
same,Effect (% visual injury) Obs,"[7]; Metribuzin 25 g ai/ha, 20-22 d",0%
same,Effect (% visual injury) Obs,"[8]; Metribuzin 25 g ai/ha, 20-22 d",0%
same,Effect (% visual injury) Obs,"[10]; Metribuzin 25 g ai/ha, 20-22 d",10%
same,Effect (% visual injury) Obs,"[11]; Metribuzin 25 g ai/ha, 20-22 d",0%
same,Effect (% visual injury) Obs,"[4]; Metribuzin 25 g ai/ha, 20-22 d",10%
